Test [1] concerns the target T1, FLT3(D835V) (Homo sapiens, UniProt P36888, D835V).
T1 sequence (P36888 27-993 D835V): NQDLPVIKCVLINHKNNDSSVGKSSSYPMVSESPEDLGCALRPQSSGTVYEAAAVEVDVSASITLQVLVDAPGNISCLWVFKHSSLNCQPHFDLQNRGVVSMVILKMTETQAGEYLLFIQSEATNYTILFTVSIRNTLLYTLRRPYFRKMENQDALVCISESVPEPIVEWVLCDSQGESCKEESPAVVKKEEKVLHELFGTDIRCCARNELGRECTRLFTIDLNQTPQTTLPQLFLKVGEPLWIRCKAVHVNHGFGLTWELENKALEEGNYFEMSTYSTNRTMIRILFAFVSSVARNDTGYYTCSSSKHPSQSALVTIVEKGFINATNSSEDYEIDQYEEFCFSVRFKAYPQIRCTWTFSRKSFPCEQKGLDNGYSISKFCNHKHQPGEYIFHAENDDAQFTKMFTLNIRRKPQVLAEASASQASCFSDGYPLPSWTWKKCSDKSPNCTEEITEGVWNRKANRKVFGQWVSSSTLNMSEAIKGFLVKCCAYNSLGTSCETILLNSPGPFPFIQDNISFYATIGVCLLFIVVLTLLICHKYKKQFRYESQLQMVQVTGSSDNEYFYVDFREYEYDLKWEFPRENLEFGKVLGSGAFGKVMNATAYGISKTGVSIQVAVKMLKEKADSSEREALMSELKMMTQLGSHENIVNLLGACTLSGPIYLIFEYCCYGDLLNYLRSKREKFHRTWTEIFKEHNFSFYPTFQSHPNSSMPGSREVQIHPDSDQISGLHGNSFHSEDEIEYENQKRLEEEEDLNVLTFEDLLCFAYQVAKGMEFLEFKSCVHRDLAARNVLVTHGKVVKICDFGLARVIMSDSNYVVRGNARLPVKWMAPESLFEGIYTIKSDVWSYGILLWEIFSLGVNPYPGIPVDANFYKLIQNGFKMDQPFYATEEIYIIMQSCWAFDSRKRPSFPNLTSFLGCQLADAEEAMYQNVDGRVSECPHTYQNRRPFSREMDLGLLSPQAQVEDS
The class given is binding. The procedure:
(§1) The assay was carried out using KINOMEscan™ technology. The assay compounds were stored in 100% DMSO. The assay was carried out by means of 3-fold dilution and 11-point fitting. All compounds used for Kd determination were dispersed by ultrasound, then directly diluted and tested. All reactions were carried out in a 384-well polypropylene plate. Each portion has a final volume of 0.02 ml. The plate was incubated with shaking at room temperature for 1 hour, and then processed. The kinase concentration in the eluent was finally determined by qPCR method. Kd was obtained by fitting.

Test [2] deals with T2, FLT3(R834Q) (Homo sapiens, UniProt P36888, R834Q).
T2 sequence (P36888 27-993 R834Q): T1 sequence (P36888 27-993 D835V) with R808Q, V809D
The class given is binding. The procedure: as §1

What is called Kd is the free concentration of one partner at which half of the binding sites on the other are occupied at equilibrium, for simple one-to-one binding. Higher therefore signals weaker binding.

Changes are numbered by the printed parent chain.

Take `CCc1nc(C(N)=O)c(Nc2ccc(N3CCC4(CCN(C)CC4)CC3)c(C)c2)nc1NC1CCOCC1.O=C(O)C(F)(F)F`: the equilibrium dissociation constant (Kd) in test [1] turned out to be 0.23 nM; in test [2] it was 31 nM.

The values are drawn from patent US20230141887A1, “CRYSTAL FORM OF DIAZASPIROPYRAN COMPOUND” (MEDSHINE DISCOVERY INC., priority 2020, published 2023).
